Conditions: instrument: DT, stepped-field

Row | SMILES | collision cross section (N2) ([M+H]+) | collision cross section (N2) ([M+Na]+) | collision cross section (N2) ([M+2Na-H]+) | further results
1 | CCCCCCCCCCCCC=CC[C@@H](O)[C@H](CO[C@@H]1O[C@H](CO)[C@@H](O)C(O)C1O)NC(=O)CCCCCCCCCCCCCCCCCCC (stereo partly drawn) [GlcCer(38:01)] | 288.15 Å² | 290.52 Å² | – | collision cross section (N2) ([M+H-H2O]+): 286.62 Å²
2 | CCCCCCCCCCCCC=CC[C@@H](O)[C@H](CO[C@@H]1O[C@H](CO)[C@@H](O)C(O)C1O)NC(=O)CCCCCCCCCCCCCCCCCCCCC (stereo partly drawn) [GlcCer(40:01)] | 293.87 Å² | 296.15 Å² | – | collision cross section (N2) ([M+Cl]-): 292.56 Å²; collision cross section (N2) ([M+H-H2O]+): 292.77 Å²; collision cross section (N2) ([M+HCOO]-): 298.16 Å²
3 | CCCCCCCCCCCCC=CC[C@@H](O)[C@H](CO[C@@H]1O[C@H](CO)[C@@H](O)C(O)C1O)NC(=O)CC=CCCCCCCCCCCCCCCCCCC (stereo partly drawn) [GlcCer(40:02)] | 293.98 Å² | 292.09 Å² | – | collision cross section (N2) ([M+H-H2O]+): 290.36 Å²
4 | CCCCCCCCCCCCC=CC[C@@H](O)[C@H](CO[C@@H]1O[C@H](CO)[C@@H](O)C(O)C1O)NC(=O)CCCCCCCCCCCCCCCCCCCCCC (stereo partly drawn) [GlcCer(41:01)] | 297.12 Å² | 297.42 Å² | – | collision cross section (N2) ([M+H-H2O]+): 294.63 Å²
5 | CCCCCCCCCCCCC=CC[C@@H](O)[C@H](CO[C@@H]1O[C@H](CO)[C@@H](O)C(O)C1O)NC(=O)CCCCCCCCCCCCCCCCCCCCCCC (stereo partly drawn) [GlcCer(42:01)] | 300.59 Å² | 301.76 Å² | – | collision cross section (N2) ([M+Cl]-): 298.88 Å²; collision cross section (N2) ([M+H-H2O]+): 298.36 Å²; collision cross section (N2) ([M+HCOO]-): 302.85 Å²
6 | CCCCCCCCCCCCC=CC[C@@H](O)[C@H](CO[C@@H]1O[C@H](CO)[C@@H](O)C(O)C1O)NC(=O)CC=CCCCCCCCCCCCCCCCCCCCCC (stereo partly drawn) [GlcCer(43:02)] | 302.04 Å² | 302.4 Å² | – | –
7 | CCCCCCCCCCCCC=CC[C@@H](O)[C@H](CO[C@@H]1O[C@H](CO)[C@@H](O)C(O)C1O)NC(=O)CCCCCCCCCCCCCCCCCCCCCCCCC (stereo partly drawn) [GlcCer(44:01)] | 306.44 Å² | 307.93 Å² | – | –
8 | CCCCCCCCCCCCC=CC[C@@H](O)[C@H](CO[C@@H]1O[C@H](CO)[C@@H](O)C(O)C1O)NC(=O)CC=CCCCCCCCCCCCCCCCCCCCCCC (stereo partly drawn) [GlcCer(44:02)] | 305.11 Å² | 306.31 Å² | – | collision cross section (N2) ([M+H-H2O]+): 301.46 Å²
9 | CCCCCCCCCCCCC=CC[C@@H](O)[C@H](CO[C@@H]1O[C@H](CO)[C@@H](O)C(O)C1O)NC(=O)CC=CCC=CCCCCCCCCCCCCCCCCCCC (stereo partly drawn) [GlcCer(44:03)] | – | 303.93 Å² | – | –
10 | CCCCCCCCCCCCC=CC[C@@H](O)[C@H](CO[C@@H]1O[C@H](CO)[C@@H](O)C(O)C1O)NC(=O)CC=CCC=CCCCCCCCCCCCCCCCCCCCCCC (stereo partly drawn) [GlcCer(47:03)] | – | – | – | collision cross section (N2) ([M+H-2H2O]+): 307.66 Å²
11 | CCCCCCCCCCCCCCCCCCCCCCCCCCCCCCC(=O)N[C@@H](CO[C@@H]1O[C@H](CO)[C@@H](O)C(O)C1O)[C@H](O)CCCCCCCCCCCCCCC (stereo partly drawn) [GlcCer(49:00)] | – | – | – | collision cross section (N2) ([M+Na-2H2O]+): 318.7 Å²
12 | CCCCCCCCCC/C=C\CCCCCCCCCC(=O)O[C@H](COC(=O)CCCCCCCCCCCC)COP(=O)(O)O [PA(35:01)] | – | – | 271.84 Å² | –
13 | CCCCCCCC/C=C\CCCCCCCC(=O)O[C@H](COC(=O)CCCCCCCCCCCCCCCCC)COP(=O)(O)O [PA(36:01)] | – | 273.4 Å² | 274.66 Å² | –
14 | CCCC/C=C\CCCCCCCC(=O)OC[C@H](COP(=O)(O)O)OC(=O)CCCCCCCCC/C=C\CCCCCCCCCC [PA(36:02)] | – | 272.25 Å² | 273.1 Å² | –
15 | CCCCC/C=C\C/C=C\C/C=C\C/C=C\CCCC(=O)O[C@H](COC(=O)CCCCCCCCCCCCCCC)COP(=O)(O)O [PA(36:04)] | – | 268.39 Å² | 270.03 Å² | –
16 | CCCCC/C=C\C/C=C\CCCCCCCCCC(=O)O[C@H](COC(=O)CCCCCCC/C=C\C/C=C\CCCCC)COP(=O)(O)O [PA(38:04)] | – | 276.54 Å² | 276.1 Å² | –
17 | CC/C=C\C/C=C\C/C=C\C/C=C\C/C=C\CCCC(=O)O[C@H](COC(=O)CCCCCCC/C=C\CCCCCCCC)COP(=O)([O-])OCC[N+](C)(C)C [PC(38:06)] | – | – | – | collision cross section (N2) ([M+Cl]-): 296.13 Å²; collision cross section (N2) ([M+HCOO]-): 295.99 Å²
18 | CCCCCCCCCCCCCCCCCCCCC(=O)OC[C@H](COP(=O)(O)OCCN)OC(=O)CCCCCCCCCCCCCC [PE(36:00)] | – | – | – | collision cross section (N2) ([M-H]-): 274.96 Å²
19 | CC/C=C\C/C=C\C/C=C\C/C=C\CCCCC(=O)O[C@H](COC(=O)CCCCCCC/C=C\CCCCCCCC)COP(=O)(O)OCCN [PE(36:05)] | – | – | – | collision cross section (N2) ([M+K]+): 274.4 Å²
20 | CC/C=C\C/C=C\C/C=C\C/C=C\C/C=C\C/C=C\CCC(=O)O[C@H](COC(=O)CCCCCCCCC/C=C\CCCCCCCC)COP(=O)(O)OCCN [PE(42:07)] | – | – | – | collision cross section (N2) ([M+K]+): 291.12 Å²

Continued, in another order:

Row | collision cross section (N2) ([M+H]+) | collision cross section (N2) ([M+Na]+) | collision cross section (N2) ([M+2Na-H]+) | SMILES | further results
21 | 281.97 Å² | 284.83 Å² | 283.9 Å² | CCCCCC/C=C/CCCCCCCCCC(=O)O[C@H](COC(=O)CCCCCCCCCCCCCCC)COP(=O)([O-])OCC[N+](C)(C)C [PC(34:01)] | collision cross section (N2) ([M+Cl]-): 290.47 Å²; collision cross section (N2) ([M+HCOO]-): 290.79 Å²; collision cross section (N2) ([M+K]+): 285.76 Å²
22 | – | 285.81 Å² | – | CCCCC/C=C\C/C=C\CCCCCCCCCCCC(=O)O[C@H](COC(=O)CCCCCCCCCCCC)COP(=O)([O-])OCC[N+](C)(C)C [PC(35:02)] | –
23 | – | 293.06 Å² | – | CCCCC/C=C\C/C=C\CCCC/C=C\CCCC(=O)O[C@H](COC(=O)CCCCCCCCCCCCCCCCC)COP(=O)([O-])OCC[N+](C)(C)C [PC(38:03)] | collision cross section (N2) ([M+Cl]-): 299.51 Å²
24 | – | 294.42 Å² | – | CC/C=C/C=C\C=C/C=C\C=C/C=C\CCCCCCCC(=O)O[C@H](COC(=O)CCCCCCCCCCCCCCCCC)COP(=O)([O-])OCC[N+](C)(C)C [PC(40:06)] | –
25 | – | 268.62 Å² | 268.9 Å² | CCCCCCCC/C=C\CCCCCCCCCC(=O)O[C@H](COC(=O)CCCCCCCCCCC)COP(=O)(O)OCCN [PE(32:01)] | –
26 | 270.06 Å² | 276.03 Å² | 275.64 Å² | CCCCCC/C=C\CCCCCCCCCC(=O)O[C@H](COC(=O)CCCCCCCCCCCCCCC)COP(=O)(O)OCCN [PE(34:01)] | collision cross section (N2) ([M+K]+): 277.57 Å²; collision cross section (N2) ([M-H]-): 266.91 Å²
27 | 268.45 Å² | 273.06 Å² | 273.28 Å² | CCCCC/C=C\C/C=C\CCCCCCCCCCCC(=O)O[C@H](COC(=O)CCCCCCCCCCC)COP(=O)(O)OCCN [PE(34:02)] | collision cross section (N2) ([M+K]+): 274.83 Å²; collision cross section (N2) ([M-H]-): 265.55 Å²
28 | – | 275.61 Å² | – | CCCCCCC/C=C\CCCCCCCC(=O)O[C@H](COC(=O)CCCCCCC/C=C\CCCCCCCC)COP(=O)(O)OCCN [PE(35:02)] | collision cross section (N2) ([M+K]+): 277.37 Å²
29 | 275.13 Å² | 279.88 Å² | 281.26 Å² | CCCCCC/C=C\CCCCCCCC(=O)OC[C@H](COP(=O)(O)OCCN)OC(=O)CCCCCCCCC/C=C\CCCCCCCC [PE(36:02)] | collision cross section (N2) ([M+K]+): 280.72 Å²; collision cross section (N2) ([M-H]-): 272.07 Å²
30 | – | 280.15 Å² | 282.12 Å² | CCCCC/C=C\C/C=C\CCCCCCCC(=O)OC[C@H](COP(=O)(O)OCCN)OC(=O)CCCCCCC/C=C\CCCCCCCCC [PE(37:03)] | –
31 | – | 285.93 Å² | – | CCCCCCCC/C=C\CCCCCCCCCCCC(=O)O[C@H](COC(=O)CCCCCCCCCCCCCCC)COP(=O)(O)OCCN [PE(38:01)] | –
32 | – | – | 286.46 Å² | CCCCC/C=C\C/C=C\CCCCCCCCCC(=O)O[C@H](COC(=O)CCCCCCC/C=C\CCCCCCCC)COP(=O)(O)OCCN [PE(38:03)] | collision cross section (N2) ([M-H]-): 277.01 Å²
33 | – | – | 281 Å² | CC/C=C\C/C=C\C/C=C\C/C=C\CCCCC(=O)OC[C@H](COP(=O)(O)OCCN)OC(=O)CCCCCCCCC/C=C\C/C=C\CCCCC [PE(38:06)] | collision cross section (N2) ([M-H]-): 273.81 Å²
34 | – | – | 291.84 Å² | CCCCC/C=C\C/C=C\CCCCCCCC(=O)OC[C@H](COP(=O)(O)OCCN)OC(=O)CCCCCCCCCCCCCCCCCCCC [PE(39:02)] | –
35 | – | – | 286.07 Å² | CCCCC/C=C\C/C=C\C/C=C\C/C=C\CCCCCC(=O)O[C@H](COC(=O)CCCC/C=C\C/C=C\C/C=C\CCCCC)COP(=O)(O)OCCN [PE(40:07)] | –
36 | – | 270.85 Å² | 271.58 Å² | CCCCC/C=C\C/C=C\C/C=C\CCCCC(=O)O[C@H](COCCCCCCCCCCCCCCCC)COP(=O)(O)OCCN [PE(o34:03)] | –
37 | – | – | 289.33 Å² | CCCCC/C=C\C/C=C\CCCCCCCC(=O)O[C@H](COCCCCCCCCCCCCCCCCCCCC)COP(=O)(O)OCCN [PE(o38:02)] | –
38 | – | 283.24 Å² | 287.42 Å² | CCCCC/C=C\C/C=C\C/C=C\CCCCC(=O)O[C@H](COCCCCCCCCCCCCCCCCCCCC)COP(=O)(O)OCCN [PE(o38:03)] | –
39 | – | – | 284.68 Å² | CCCCC/C=C\C/C=C\C/C=C\C/C=C\CCCC(=O)O[C@H](COCCCCCCCCCCCCCCCCCC)COP(=O)(O)OCCN [PE(o38:04)] | –
40 | – | – | 280.81 Å² | CCCCCCCCCC/C=C\CCCCCCCCCC(=O)O[C@H](COC(=O)CCCCCCCCCCC)COP(=O)(O)OC[C@H](N)C(=O)O [PS(34:01)] | –

Source: the C3SDB collision cross section collection
